Experimental data as given in US20120239131A1, “METHODS AND APPARATUS FOR TREATMENT OF ANEURYSMAL TISSUE” (Medtronic Vascular, Inc., priority 2011, published 2012).
“Also recorded” adds a separate entry of the source.

Legend:
aneurysm = test: Aneurysm incidence over time, ApoE−/−+Ang II AAA model; type: in vivo, ApoE−/− mice; conditions: aneurysm = dissection or more than 50% increase in diameter; versus doxycycline and saline control
Description: (§1) ApoE−/− mice used in this study were divided into different pretreatment groups: 1) Fluvastatin-MF; 2) Doxycycline-MD; 3) Irbesartan-MI; 4) Telmisartan-MT; 5) Control (water) and fed medicated chow or medicated drinking water 1 week prior to pump implantation. AngII (1000 ng·kg^−1 of body weight·min^−1) was infused subcutaneously via Alzet mini-osmotic pumps for 28 days. All mice were maintained on the medicated chow (MI & MT) or medicated drinking water (MF & MD) treatments which were delivered daily for a total of 28 days following pump implantation.
(§2) In order to determine the effect of the various treatments on the progressive enlargement of the experimental AAAs the mice were followed with high frequency trans-abdominal ultrasound. Maximum aortic diameter was measured and recorded prior to pump implantation and then at 3, 7, 14, 21, and 28 days. All mice were sacrificed 28 days after pump implantation. Aortae were harvested and subjected to either histological analysis (Elastic Masson trichome, MAC2, CD31 and TUNEL staining) and analysis of mural gene expression. Plasma drug concentrations of experimental compounds were quantified on the day of sacrifice using high performance liquid chromatography (HPLC).
Aneurysm was defined as either the presence of dissection or more than 50% increase in diameter.

[1] = Plasma drug content by HPLC; type: in vivo, ApoE−/− mice; conditions: mouse plasma on day of sacrifice
Description: as §2

Osteopontin = test: Aortic mural gene expression, RT-PCR (TLDA); type: in vivo, ApoE−/− mice; conditions: fold change over ApoE−/− control; aorta, 28 days Ang II infusion
Description: as §1, §2
(§3) Total RNA was extracted from homogenized aortas using the Qiazol lysis reagent and RNeasy Lipid Tissue Mini kit. DNAse treatment was included in the procedure. RNA concentration was determined utilizing the Quant iT RNA assay kit. Complimentary deoxyribonucleic acid (cDNA) was synthesized from 1 μg RNA using High reverse cDNA transcription kit. Briefly the reaction tubes containing RNA, reverse transcriptase, buffer, RNAse inhibitor, and nuclease free water were incubated at 25° C. for 10 minutes to allow annealing. Reverse transcription was performed at 37° C. for 120 min, followed by a 5 sec incubation at 85° C. to inactivate the reverse transcriptase enzyme. The cDNA samples were cooled at 4° C. and stored at −80° C. until further use.
(§4) Real time PCR was performed using a 384-well Taqman low density array (TLDA) card. Each sample specific PCR mix contained 50 ng of total RNA converted to cDNA. The PCR reaction for Taqman assays contained 50 μl Master Mix (Taqman Universal PCR Master Mix,) and 50 ul of cDNA and RNAase free water. Assays were performed to include appropriate controls (no template control). The RT-PCR protocol included an initial step of 50° C. (2 minutes) […], denaturation by a hot start at 95° C. for 10 min, followed by 40 cycles of a 2 step program (denaturation at 95° C. for 15 secs for primer annealing/extension at 60° C. for 1 min). Fluorescence data was collected at 60° C. Fluorescence was quantified with ABI PRISM 7900HT Sequence Detection System. To verify amplification of a specific target cDNA, data generated was analyzed using SDS 2.2.3 software (Sequence Detection System Software, Applied Biosystems). For all amplification plots, the baseline data were set with the automatic CT function available with SDS 2.2.3 calculating the optimal baseline range and threshold value by using the AutoCT algorithm. According to the manufacturer's instruction, a CT value of ≧39 corresponds to nonspecific amplification marking the limits of detection. For endogenous control GAPDH was normalized to B2M. For relative quantification (RQ), pooled ApoE−/− control was used as the calibrator (with expression equal to 1).

ITGB2 = test: Aortic mural gene expression, RT-PCR (TLDA); type: in vivo, ApoE−/− mice; conditions: fold change over ApoE−/− control; aorta, 28 days Ang II infusion
Description: as §1, §2, §3, §4

IL-7 = test: Aortic mural gene expression, RT-PCR (TLDA); type: in vivo, ApoE−/− mice; conditions: fold change over ApoE−/− control; aorta, 28 days Ang II infusion
Description: as §1, §2, §3, §4

CXCR4 = test: Aortic mural gene expression, RT-PCR (TLDA); type: in vivo, ApoE−/− mice; conditions: fold change over ApoE−/− control; aorta, 28 days Ang II infusion
Description: as §1, §2, §3, §4

LOX = test: Aortic mural gene expression, RT-PCR (TLDA); type: in vivo, ApoE−/− mice; conditions: fold change over ApoE−/− control; aorta, 28 days Ang II infusion
Description: as §1, §2, §3, §4

MMP-8 = test: Aortic mural gene expression, RT-PCR (TLDA); type: in vivo, ApoE−/− mice; conditions: fold change over ApoE−/− control; aorta, 28 days Ang II infusion
Description: as §1, §2, §3, §4

Tgfβ1 = test: Aortic mural gene expression, RT-PCR (TLDA); type: in vivo, ApoE−/− mice; conditions: fold change over ApoE−/− control; aorta, 28 days Ang II infusion
Description: as §1, §2, §3, §4

Fibronectin -1 = test: Aortic mural gene expression, RT-PCR (TLDA); type: in vivo, ApoE−/− mice; conditions: fold change over ApoE−/− control; aorta, 28 days Ang II infusion
Description: as §1, §2, §3, §4

TIMP2 = test: Aortic mural gene expression, RT-PCR (TLDA); type: in vivo, ApoE−/− mice; conditions: fold change over ApoE−/− control; aorta, 28 days Ang II infusion
Description: as §1, §2, §3, §4

CCR2 = test: Aortic mural gene expression, RT-PCR (TLDA); type: in vivo, ApoE−/− mice; conditions: fold change over ApoE−/− control; aorta, 28 days Ang II infusion
Description: as §1, §2, §3, §4

CCL2 = test: Aortic mural gene expression, RT-PCR (TLDA); type: in vivo, ApoE−/− mice; conditions: fold change over ApoE−/− control; aorta, 28 days Ang II infusion
Description: as §1, §2, §3, §4

Rac2 = test: Aortic mural gene expression, RT-PCR (TLDA); type: in vivo, ApoE−/− mice; conditions: fold change over ApoE−/− control; aorta, 28 days Ang II infusion
Description: as §1, §2, §3, §4

Cathepsin S = test: Aortic mural gene expression, RT-PCR (TLDA); type: in vivo, ApoE−/− mice; conditions: fold change over ApoE−/− control; aorta, 28 days Ang II infusion
Description: as §1, §2, §3, §4

Cathepsin B = test: Aortic mural gene expression, RT-PCR (TLDA); type: in vivo, ApoE−/− mice; conditions: fold change over ApoE−/− control; aorta, 28 days Ang II infusion
Description: as §1, §2, §3, §4

Vav1 = test: Aortic mural gene expression, RT-PCR (TLDA); type: in vivo, ApoE−/− mice; conditions: fold change over ApoE−/− control; aorta, 28 days Ang II infusion
Description: as §1, §2, §3, §4

TNF-α = test: Aortic mural gene expression, RT-PCR (TLDA); type: in vivo, ApoE−/− mice; conditions: fold change over ApoE−/− control; aorta, 28 days Ang II infusion
Description: as §1, §2, §3, §4

CCR5 = test: Aortic mural gene expression, RT-PCR (TLDA); type: in vivo, ApoE−/− mice; conditions: fold change over ApoE−/− control; aorta, 28 days Ang II infusion
Description: as §1, §2, §3, §4

Runx3 = test: Aortic mural gene expression, RT-PCR (TLDA); type: in vivo, ApoE−/− mice; conditions: fold change over ApoE−/− control; aorta, 28 days Ang II infusion
Description: as §1, §2, §3, §4

MAPK8 = test: Aortic mural gene expression, RT-PCR (TLDA); type: in vivo, ApoE−/− mice; conditions: fold change over ApoE−/− control; aorta, 28 days Ang II infusion
Description: as §1, §2, §3, §4

ITGAL = test: Aortic mural gene expression, RT-PCR (TLDA); type: in vivo, ApoE−/− mice; conditions: fold change over ApoE−/− control; aorta, 28 days Ang II infusion
Description: as §1, §2, §3, §4

MMP-12 = test: Aortic mural gene expression, RT-PCR (TLDA); type: in vivo, ApoE−/− mice; conditions: fold change over ApoE−/− control; aorta, 28 days Ang II infusion
Description: as §1, §2, §3, §4

HMOX 1 = test: Aortic mural gene expression, RT-PCR (TLDA); type: in vivo, ApoE−/− mice; conditions: fold change over ApoE−/− control; aorta, 28 days Ang II infusion
Description: as §1, §2, §3, §4

Cybb = test: Aortic mural gene expression, RT-PCR (TLDA); type: in vivo, ApoE−/− mice; conditions: fold change over ApoE−/− control; aorta, 28 days Ang II infusion
Description: as §1, §2, §3, §4

[2] = system: genes involved in the pathophysiology of AAA; test: Drug inhibition effect on differentially expressed genes, overall; type: in vivo, ApoE−/− mice
Description: as §1, §2, §3, §4

AAA = test: Aortic diameter by ultrasonography, ApoE−/−+Ang II AAA model; type: in vivo, ApoE−/− mice; conditions: pretreatment 1 week before Ang II infusion, followed to 28 days; versus control and doxycycline
Excerpt: The ApoE^−/−+Ang II AAA model is well established and supported by current scientific literature. Mice genetically predisposed to hypercholesterolemia develop aneurysms when treated with angiotensin II. Aneurysms generally develop within the first week after pump implantation and share many important pathologic characteristics with human AAA disease. ApoE−/− mice used in this study were divided into different pretreatment groups: 1) Fluvastatin-MF; 2) Doxycycline-MD; 3) Irbesartan-MI; 4) Telmisartan-MT; 5) Control (water) and fed medicated chow or medicated drinking water 1 week prior to pump implantation. AngII (1000 ng·kg^−1 of body weight·min^−1) was infused subcutaneously via Alzet mini-osmotic pumps for 28 days. All mice were maintained on the medicated chow (MI & MT) or medicated drinking water (MF & MD) treatments which were delivered daily for a total of 28 days following pump implantation. In order to determine the effect of the various treatments on the progressive enlargement of the experimental AAAs the mice were followed with high frequency trans-abdominal ultrasound. Maximum aortic diameter was measured and recorded prior to pump implantation and then at 3, 7, 14, 21, and 28 days. All mice were sacrificed 28 days after pump implantation. Aortae were harvested and subjected to either histological analysis (Elastic Masson trichome, MAC2, CD31 and TUNEL staining) and analysis of mural gene expression. Plasma drug concentrations of experimental compounds were quantified on the day of sacrifice using high performance liquid chromatography (HPLC).

[3] = cited from earlier work
[4] = cited from earlier work; remark: listed apart in the source
ACE = ACE (Homo sapiens, UniProt P12821); conditions: in vitro; cited from earlier work
ACE, sequence (P12821 30-1306, species assumed): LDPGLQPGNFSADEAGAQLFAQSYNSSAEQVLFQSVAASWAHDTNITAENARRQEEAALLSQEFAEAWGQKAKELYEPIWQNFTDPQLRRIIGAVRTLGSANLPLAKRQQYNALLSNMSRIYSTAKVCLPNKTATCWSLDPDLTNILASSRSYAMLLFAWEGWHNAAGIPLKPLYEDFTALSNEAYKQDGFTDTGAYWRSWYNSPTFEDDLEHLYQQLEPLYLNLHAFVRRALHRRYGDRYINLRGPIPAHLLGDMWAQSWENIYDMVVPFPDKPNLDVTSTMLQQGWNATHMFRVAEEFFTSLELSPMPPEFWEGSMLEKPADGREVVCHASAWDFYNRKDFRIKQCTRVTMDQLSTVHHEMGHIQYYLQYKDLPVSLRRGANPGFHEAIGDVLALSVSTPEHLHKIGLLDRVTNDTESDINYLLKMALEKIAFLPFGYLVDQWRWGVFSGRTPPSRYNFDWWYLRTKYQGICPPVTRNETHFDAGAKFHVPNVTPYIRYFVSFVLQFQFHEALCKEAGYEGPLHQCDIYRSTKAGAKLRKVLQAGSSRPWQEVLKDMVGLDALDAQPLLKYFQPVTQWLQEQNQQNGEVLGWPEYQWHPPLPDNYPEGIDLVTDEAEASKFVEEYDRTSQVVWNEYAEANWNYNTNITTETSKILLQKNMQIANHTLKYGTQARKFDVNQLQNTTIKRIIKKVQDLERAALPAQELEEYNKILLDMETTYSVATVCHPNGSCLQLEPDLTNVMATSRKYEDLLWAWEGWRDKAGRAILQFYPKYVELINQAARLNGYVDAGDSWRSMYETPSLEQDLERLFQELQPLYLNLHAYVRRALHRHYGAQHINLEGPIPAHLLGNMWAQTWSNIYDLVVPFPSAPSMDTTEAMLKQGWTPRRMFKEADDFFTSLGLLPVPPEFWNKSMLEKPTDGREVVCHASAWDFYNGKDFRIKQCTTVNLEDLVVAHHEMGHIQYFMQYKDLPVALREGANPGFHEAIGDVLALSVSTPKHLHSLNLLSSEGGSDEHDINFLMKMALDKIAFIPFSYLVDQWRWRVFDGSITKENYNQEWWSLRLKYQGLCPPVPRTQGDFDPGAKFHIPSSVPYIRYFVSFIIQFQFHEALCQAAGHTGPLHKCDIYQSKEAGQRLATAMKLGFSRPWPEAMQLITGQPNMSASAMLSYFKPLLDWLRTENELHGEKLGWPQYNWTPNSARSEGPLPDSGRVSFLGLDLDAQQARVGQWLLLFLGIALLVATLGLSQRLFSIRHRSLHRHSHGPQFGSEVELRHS

CCCCC1=NC2(CCCC2)C(=O)N1Cc1ccc(-c2ccccc2-c2nnn[nH]2)cc1 [Irbesartan]
Inhibition of aneurysm development (aneurysm incidence) (aneurysm): effective in inhibiting aneurysm development; also recorded: inhibited aneurysm development well
Plasma drug content [1]: lower plasma concentration
Osteopontin expression (Osteopontin): ++ (1.51 to 3 = ++)
ITGB2 expression (ITGB2): − (0 to 1 = −)
IL-7 expression (IL-7): − (0 to 1 = −)
CXCR4 expression (CXCR4): − (0 to 1 = −)
LOX expression (LOX): − (0 to 1 = −)
MMP-8 expression (MMP-8): ++ (1.51 to 3 = ++)
Tgfβ1 expression (Tgfβ1): − (0 to 1 = −)
Fibronectin -1 expression (Fibronectin -1): − (0 to 1 = −)
TIMP2 expression (TIMP2): − (0 to 1 = −)
CCR2 expression (CCR2): − (0 to 1 = −)
CCL2 expression (CCL2): − (0 to 1 = −)
Rac2 expression (Rac2): − (0 to 1 = −)
Cathepsin S expression (Cathepsin S): − (0 to 1 = −)
Cathepsin B expression (Cathepsin B): − (0 to 1 = −)
Vav1 expression (Vav1): − (0 to 1 = −)
TNF-α expression (TNF-α): − (0 to 1 = −)
CCR5 expression (CCR5): − (0 to 1 = −)
Runx3 expression (Runx3): − (0 to 1 = −)
MAPK8 expression (MAPK8): − (0 to 1 = −)
ITGAL expression (ITGAL): − (0 to 1 = −)
MMP-12 expression (MMP-12): +++ (3.1 to 10 = +++)
HMOX 1 expression (HMOX 1): − (0 to 1 = −)
Cybb expression (Cybb): − (0 to 1 = −)
Down-regulation of genes involved in the pathophysiology of AAA ([2]; ApoE−/− + Ang II AAA model, summary of Table 2): down-regulating the expression of genes
Total Score ([2]; sum of heat map grades over 25 genes, ApoE−/− + Ang II group scored 55): 7
Inhibition of aneurysm development/growth (aortic diameter) (AAA): effective in inhibiting/preventing aneurysm development

C[C@H](CS)C(=O)N1CCC[C@H]1C(=O)O [Captopril, captopril]
Bioavailability ([3]; given orally): about 75%

COCCCOc1cc(C[C@@H](C[C@H](N)[C@@H](O)C[C@H](C(=O)NCC(C)(C)C(N)=O)C(C)C)C(C)C)ccc1OC [Aliskiren]
Water solubility [4]: good water solubility
Half-life in the plasma ([3]; in vivo): approximately 24 hours

NCCCC[C@H](N[C@@H](CCc1ccccc1)C(=O)O)C(=O)N1CCC[C@H]1C(=O)O [Lisinopril, lisinopril]
ACE inhibitor potency (in words) (ACE): slightly more potent ACE inhibitor than is enalaprilat
Time to peak concentrations in the plasma ([3]; after oral administration): about 7 hours
